What was measured:
5-Lipoxygenase = test: ARBL whole cell 5-lipoxygenase assay (LTB4 formation in RBL-1 cells); assay type: cell-based, rat; settings: 10 μm concentration, A23187 stimulated, LTB4 by RIA
Method: (§1) ARBL/ARBC Whole Cell 5-Lipoxygenase and Cyclooxygenase Assays The rat basophilic leukemia cell line (RBL 1) was obtained from the American Type Culture Collection (Rockville, Md.). Radioimmunoassay (RIA) kits of LTB4 and PGF2α were obtained from Amersham (Arlington Heights, Ill.) and Seragen (Boston, Mass.), respectively. RBL-1 cells are grown in suspension culture in Eagle's minimum essential medium supplemented with 12% fetal bovine serum at 37° C. in an incubator supplied with air 5% carbon dioxide. Cells are harvested by centrifugation. They are washed with cold phosphate buffered saline pH 7.4 (PBS; NaCl, 7.1 g; Na2 HPO4, 1.15 g; KH2 PO4, 0.2 g; and KCl, 0.2 g/l). Cells are finally suspended in PBS containing 1.0 mM calcium at a density of 2×10^6 cells/ml. Cells are incubated with and without test agent (in DMSO) (1% DMSO is without effect on arachidonic acid metabolism) for ten minutes at room temperature. Calcium ionophore A23187 (5 μM) is added and cells are incubated for seven minutes at 37° C. The reaction is stopped by chilling the tubes on ice for ten minutes. Cells are separated by centrifugation and the supernatant is stored at -20°. Aliquots (100 μl) are analyzed for LTB4 and PGF2α using radioimmunoassay kits as provided by the supplier. […]

Cyclooxygenase = test: ARBC whole cell cyclooxygenase assay (PGF2α formation in RBL-1 cells); assay type: cell-based, rat; settings: 10 μm, A23187 stimulated, PGF2α by RIA
Method: as §1

Structure (SMILES): CN1OCC/C(=C\c2nc(C(C)(C)C)c(O)c(C(C)(C)C)n2)C1=O [(E)-4-[[4,6-Bis(1,1-dimethylethyl)-5-hydroxy-2-pyrimidinyl]methylene]tetrahydro-2-methyl-2H-1,2-oxazin-3-one]
- inhibition for ARBL (5-Lipoxygenase): 84%
- inhibition for ARBC (Cyclooxygenase): 88%

— patent US5215986A, “5-hydroxy-2-pyrimidinylmethylene oxaza heterocycles” (Warner-Lambert Company, priority 1992, dated 1993)
